Values of other authors as cited in patent publication US20100016828A1, “Drug Delivery System and Method” (priority 1995, published 2010).
Values belong to the compound of their own block, whether it stands above or below them.

Tests used:
[1] = system: blood-brain barrier; details: hyperosmolar saturated solution of 25% mannitol, intra-arterial infusion for approximately 30 seconds
[2] = intrathecal administration; at 1 hour
[3] = cat brain

Compound: OC[C@@H](O)[C@@H](O)[C@H](O)[C@H](O)CO [mannitol]
period of nonselective entry of substances into the CNS and tumor after blood-brain barrier disruption [1]: approximately 30 minutes

depth of penetration into parenchymal tissue [2]: 3.2 mm
Compound: CN(Cc1cnc2nc(N)nc(N)c2n1)c1ccc(C(=O)N[C@@H](CCC(=O)O)C(=O)O)cc1 [methotrexate]

spread in an anterior-posterior direction ([3]; two hour infusions, immediately after completion of the infusion): ≈ 2.0 cm
Compound: OC[C@H]1O[C@@](CO)(O[C@H]2O[C@H](CO)[C@@H](O)[C@H](O)[C@H]2O)[C@@H](O)[C@@H]1O [sucrose]
distribution into gray matter ([3]; after interstitial infusion): extensively distributed into gray matter by two hours

HpD uptake relative to normal brain tissue (glioblastomas): 30 times | HpD uptake relative to normal tissue (low-grade tumors): 8 times
Compound: hematoporphyrin derivative [HpD]
